Experimental findings from patent publication US6432949B1, “Amide derivatives useful as inhibitors of the production of cytokines” (AstraZeneca AB, priority 1998, dated 2002) are described below.

For orientation: pIC50 means the negative decadic logarithm of the IC50, by convention in mol/L.

pIC50: −log10 of the molar value.

In one experiment the target is T1, p38α (Homo sapiens, UniProt Q16539).
T1 construct: c-myc (N); 6His (N); made in house; host or cells: E. coli (PET vectors)
In words: In vitro enzyme assay, p38α isoform. The note with it: read-out: IC50 against p38α. The format is biochemical. On the procedure:
The ability of compounds of the invention to inhibit the enzyme p38 kinase was assessed. Activity of test compounds against each of the p38α and […] isoforms of the enzyme was determined.
Human recombinant MKK6 (GenBank Accesion Number G1209672) was isolated from Image clone 45578 (Genomics 1996, 33, 151) and utilised to produce protein in the form of a GST fusion protein in a pGEX vector using analogous procedures to those disclosed by J. Han et al., Journal of Biological Chemistry, 1996, 271, 2886-2891. p38α (GenBank Accession Number G529039) and p38β (GenBank Accession Number G1469305) were isolated by PCR amplification of human lymphoblastoid cDNA (GenBank Accession Number GM1416) and human foetal brain cDNA [synthesised from mRNA (Clontech, catalogue no. 6525-1) using a Gibco superscript cDNA synthesis kit] respectively using oligonucleotides designed for the 5′ and 3′ ends of the human p388α and p38β genes using analogous procedures to those described by J. Han et al., Biochimica et Biolphysica Acta, 1995, 1265, 224-227 and Y. Jiang et al., Journal of Biological Chemistry, 1996, 271, 17920-17926.
Both p38 protein isoforms were expressed in e coli in PET vectors. Human recombinant p38α and p38β isoforms were produced as 5′ c-myc, 6His tagged proteins. Both MKK6 and the p38 proteins were purified using standard protocols: the GST MKK6 was purified using a glutathione sepharose column and the p38 proteins were purified using nickel chelate columns.
The p38 enzymes were activated prior to use by incubation with MKK6 for 3 hours at 30° C. The unactivated coli-expressed MKK6 retained sufficient activity to fully activate both isoforns of p38. The activation incubate comprised p38α (10 μl of 10 mg/ml) or p38β (10 μl of 5 mg/ml) together with MKK6 (10 μl of 1 mg/ml), ‘Kinase buffer’ [100 μl; pH 7.4 buffer comprising Tris (50 mM), EGTA (0.1 mM), sodium orthovanadate (0.1 mM) and β-mercaptoethanol (0.1%)] and MgATP (30 μl of 50 mM Mg(OCOCH3)2 and 0.5 mM ATP). This produced enough activated p38 enzyme for 3 Microtiter plates.
Test compounds were solubilised in DMSO and 10 μl of a 1:10 diluted sample in ‘Kinase Buffer’ was added to a well in a Microtiter plate. For single dose testing, the compounds were tested at 10 μM. ‘Kinase Assay Mix’ [30 μl; comprising Myelin Basic Protein (Gibco BRL cat. no. 1322B-010; 1 ml of a 3.33 mg/ml solution in water), activated p38 enzyme (50 μl) and ‘Kinase Buffer’ (2 ml)] was then added followed by ‘Labelled ATP’ [10 μl; comprising 50 μM ATP, 0.1 μCi ^33P ATP (Amersham International cat. no. BF1000) and 50 mM Mg(OCOCH3)2]. The plates were incubated at room temperature with gentle agitation. Plates containing p38α were incubated for 90 min and plates containing p38β were incubated for 45 min. Incubation was stopped by the addition of 50 μl of 20% trichloroacetic acid (TCA). The precipitated protein was phosphorylated by p38 kinase and test compounds were assessed for their ability to inhibit this phosphorylation. The plates were filtered using a Canberra Packard Unifilter and washed with 2% TCA, dried overnight and counted on a Top Count scintillation counter.
Test compounds were tested initially at a single dose and active compounds were retested to allow IC50 values to be determined.

Experiment [1] deals with TNFα production. In words: PBMC test: TNFα production by LPS-stimulated human peripheral blood mononuclear cells. The format is cell-based. As to the method:
The ability of compounds of this invention to inhibit TNFα production was assessed by using human peripheral blood mononuclear cells which synthesise and secrete TNFα when stimulated with lipopolysaccharide.
Peripheral blood mononuclear cells (PBMC) were isolated from heparinised (10 units/ml heparin) human blood by density centrifugation (Lymphoprep™; Nycomed). Mononuclear cells were resuspended in culture medium [RPMI 1640 medium (Gibco) supplemented with 50 units/ml penicillin, 50 μg/ml streptomycin, 2 mM glutamine and 1% heat-inactivated human AB serum (Sigma H-1 513)]. Compounds were solubilised in DMSO at a concentration of 50 mM, diluted 1:100 in culture medium and subsequently serial dilutions were made in culture medium containing 1% DMSO. PBMCs (2.4×10^5 cells in 160 μl culture medium) were incubated with 20 μl of varying concentrations of test compound (triplicate cultures) or 20 μl culture medium containing 1% DMSO (control wells) for 30 minutes at 37° C. in a humidified (5%CO2/95% air) incubator (Falcon 3072; 96 well flat-bottom tissue culture plates). 20 μl lipopolysaccharide [LPS E.Coli 0111:B4 (Sigma L4130), final concentration 10 μg/ml] solubilised in culture medium was added to appropriate wells. 20 μl culture medium was added to “medium alone” control wells. Six “LPS alone” and four “medium alone” controls were included on each 96 well plate. Varying concentrations of a known TNFα inhibitor were included in each test, i.e. an inhibitor of the PDE Type IV enzyme (for example see Semmler, J. Wachtel. H. and Endres, S., Int. J. Immunopharmac. (1993), 15(3), 409-413) or an inhibitor of proTNFα convertase (for example, see McGeehan, G. M. et al. Nature (1994) 370, 558-561). Plates were incubated for 7 hours at 37° C. (humidified incubator) after which 100 μl of the supernatant was removed from each well and stored at −70° C. (96 well round-bottom plates; Corning 25850). TNFα levels were determined in each sample using a human TNFα ELISA (see WO92/10190 and Current Protocols in Molecular Biology, vol 2 by Frederick M. Ausbel et al., John Wiley and Sons Inc.).
% inhibition=(LPS alone−medium alone)−(test concentration−medium alone)×100(LPS alone−medium alone)

Experiment [2] relates to TNFα production. Description: Human Whole Blood (HWB) test: TNFα production by LPS-stimulated human whole blood. Format: cell-based. As to the method: The ability of the compounds of this invention to inhibit TNFα production was also assessed in a human whole blood assay. Human whole blood secretes TNFα when stimulated with LPS. This property of blood forms the basis of an assay which is used as a secondary test for compounds which profile as active in the PBMC test.
Heparinised (10 units/ml) human blood was obtained from volunteers. 160 μl whole blood were added to 96 well round-bottom plates (Corning 25850). Compounds were solubilised and serially diluted in RPMI 1640 medium (Gibco) supplemented with 50 units/ml penicillin, 50 μg/ml streptomycin and 2 mM glutamine, as detailed above. 20 μl of each test concentration was added to appropriate wells (triplicate cultures). 20 μl of RPMI 1640 medium supplemented with antibiotics and glutamine was added to control wells. Plates were incubated for 30 minutes at 37° C. (humidified incubator), prior to addition of 2011 LPS (final concentration 10 μg/ml). RPMI 1640 medium was added to control wells. Six “LPS alone” and four “medium alone” controls were included on each plate. A known TNFα synthesis/secretion inhibitor was included in each test. Plates were incubated for 6 hours at 37° C. (humidified incubator). […] TNFα levels were measured by ELISA (see WO92/10190 and Current Protocols in Molecular Biology, vol 2 by Frederick M. Ausbel et al., John Wiley and Sons Inc.). […]

T1 sequence (Q16539 whole entry): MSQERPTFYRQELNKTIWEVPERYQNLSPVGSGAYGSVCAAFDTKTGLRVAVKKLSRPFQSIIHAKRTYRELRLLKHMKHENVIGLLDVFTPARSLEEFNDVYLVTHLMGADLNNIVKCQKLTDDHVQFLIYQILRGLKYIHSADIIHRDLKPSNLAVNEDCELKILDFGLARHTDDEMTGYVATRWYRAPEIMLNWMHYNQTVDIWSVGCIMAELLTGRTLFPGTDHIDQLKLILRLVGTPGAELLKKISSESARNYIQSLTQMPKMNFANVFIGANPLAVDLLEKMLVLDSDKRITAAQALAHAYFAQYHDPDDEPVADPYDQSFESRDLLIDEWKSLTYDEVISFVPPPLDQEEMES

`Cc1ccc(NC(=O)c2cccc(N(C)C)c2)cc1NC(=O)c1ccc(Cl)nc1` [Example 1, 6-chloro-N-[5-(3-dimethylaminobenzamido)-2-methylphenyl]pyridine-3-carboxamide]: the pIC50 on p38α is approximately 6.00; in the experiment with TNFα production [1] (Homo sapiens, PBMC) it was approximately 5.05.

On to `Cc1ccc(NC(=O)c2cccc(N(C)C)c2)cc1NC(=O)c1ccc2ncsc2c1` [Example 8, Compound No. 2, N-[5-(3dimethylaminobenzamido)-2-methylphenyl]benzothiazole-6-carboxamide], for which the pIC50 at p38α is approximately 7.00; with TNFα production [1] (Homo sapiens, PBMC), approximately 5.30.

For the compound `N#Cc1ccc(C(=O)Nc2ccc(Cl)c(NC(=O)c3ccc4ncccc4c3)c2)cc1` [Example 10, N-[2-chloro-5-(4-cyanobenzamido)phenyl]quinoline6-carboxamide], the pIC50 was approximately 7.30 on p38α and approximately 5.70 with TNFα production [1] (Homo sapiens, PBMC).

For `Cc1ccc(NC(=O)c2ccnc(N3CCOCC3)c2)cc1NC(=O)c1ccc(NCCCN(C)C)nc1` [Example 22(14), 6-(3-dimethylaminopropylamino)-N-[2-methyl-5-(2-morpholinopyrid-4-ylcarbonylamino)phenyl]pyridine-3-carboxamide], the pIC50 is approximately 7.30 on p38α and approximately 5.52 in the experiment on TNFα production [2].

`Cc1ccc(NC(=O)c2ccnc(N3CCOCC3)c2)cc1NC(=O)c1ccc(NCCC2CCCN2C)nc1` (stereo not shown) [Example 22(18), 6-[2-(1-methylpyrrolidin-2-yl)ethylamino]-N-[2-methyl-5(2-morpholinopyrid-4-ylcarbonylamino)phenyl]pyridine-3-carboxamide]: the pIC50 on p38α is approximately 7.30; in the experiment with TNFα production [1] (Homo sapiens, PBMC), approximately 6.52; in the experiment on TNFα production [2] it was approximately 5.70.

Take “N-[5-(5-isoxazolylcarbonylamino)2-methylphenyl]quinoline-6-carboxamide [Example 14]”: the pIC50 at p38α is approximately 7.00; with TNFα production [1], approximately 5.52.
